Data from patent US20130102595A1 (Curis, Inc., priority 2011, published 2013).

Columns and labels:
[1] = molecular target: T1, PI3Kγ (p120γ) (Homo sapiens, UniProt P48736); assay: PI3Kγ ADP-Glo assay; type: biochemical; details: 20 μM PIP2, 10 μM ATP, 90 minutes
T1 construct: His (N); made in house; host or cells: Baculovirus-infected Sf9 cells
Description: (d) an In Vitro Assay which Determines the Ability of a Test Compound to Inhibit PI3Kγ.
(§1) Activity of PI3Kγ was measured using ADP-Glo assay from Promega. PI3Kγ, N-terminal His-tagged recombinant full-length human p120γ (GenBank, Accession No. AF327656) was expressed in a Baculovirus infected Sf9 cell expression system. The ADP-Glo assay was performed to measure the amount of ADP generated from ATP hydrolysis coupled with PIP2 phosphorylation by the purified recombinant PI3Kγ (p110δ/p85α). PI3Kγ was incubated with 20 μM PIP2 substrate in the reaction buffer (10 mM Tris-HCl, pH 7.5, 50 mM NaCl, 5 mM MgCl2, 10 μM ATP and 0.5% DMSO) for 90 minutes at room temperature. The ADP generated was then detected by ADP-Glo assay from Promega, a luminescent ADP detection assay. The ADP-Glo assay is performed in two steps; first, after the kinase reaction, ADP-Glo Reagent is added to terminate the kinase reaction and deplete the remaining ATP. Second, the Kinase Detection Reagent is added to simultaneously convert ADP to ATP and allow the newly synthesized ATP to be measured using a luciferase/luciferin reaction.

[2] = molecular target: T2, PI3Kβ (p110β/p85α) (Homo sapiens, UniProt P42338); assay: PI3Kβ ADP-Glo assay; type: biochemical; details: 20 μM PIP2, 10 μM ATP, 90 minutes
T2 construct: His (N); made in house; host or cells: Baculovirus-infected Sf9 cells
Description: (B) an In Vitro Assay which Determines the Ability of a Test Compound to Inhibit PI3Kβ.
as §1, with “PI3Kβ” for “PI3Kγ”, “[…], a complex of” for “PI3Kγ,”, “p110β” for “p120γ”, “NM_006219) and untagged recombinant full length human p85α (GenBank Accession No. XM—043865) were co-expressed” for “AF327656) was expressed”, “PI3Kβ (p110β/p85α). PI3Kβ” for “PI3Kγ (p110δ/p85α). PI3Kγ”

[3] = system: CaPan1; assay: Cell proliferation assay (CellTiter-Glo); type: cell-based; details: Homo sapiens, CAPAN-1; Pancreas; 72 hours, 0.5% fetal bovine serum; read-out: antiproliferative activity IC50, CaPan1
Method in brief: (§2)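 Proliferation is gauged by cellular ATP via firefly luciferase luminescence following 72-hour compound treatment in 0.5% serum.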

[4] = system: SW403; assay: Cell proliferation assay (CellTiter-Glo); type: cell-based; details: Homo sapiens, SW-403; Colon; 72 hours, 0.5% fetal bovine serum; read-out: antiproliferative activity IC50, SW403
Method in brief: as §2

[5] = system: OPM-2; assay: Cell proliferation assay (CellTiter-Glo); type: cell-based; details: Homo sapiens, Multiple Myeloma, 72 hours, 0.5% fetal bovine serum, read-out: antiproliferative activity IC50, OPM-2
Method in brief: as §2

[6] = system: SWI-116; assay: Cell proliferation assay (CellTiter-Glo); type: cell-based; details: Colon; 72 hours, 0.5% fetal bovine serum; read-out: antiproliferative activity IC50, SWI-116
Method in brief: as §2

[7] = system: SW620; assay: Cell proliferation assay (CellTiter-Glo); type: cell-based; details: Homo sapiens, SW-620; Colon; 72 hours, 0.5% fetal bovine serum; read-out: antiproliferative activity IC50, SW620
Method in brief: as §2

[8] = molecular target: T3, mTor serine/threonine protein kinase (Homo sapiens, UniProt P42345); assay: mTor kinase radioisotope assay; type: biochemical; details: 70 uM ATP, 40 minutes; read-out: m-TOR IC50
T3 construct: FLAG; made in house; host or cells: Baculovirus expression system in Sf21 cells
Method in brief: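 FLAG-tagged full-length recombinant human mTor from baculovirus/Sf21, incubated with p70S6K C-terminal fragment (2 mg/ml) and 70 uM ATP plus 33P-ATP tracer in 50 mM HEPES pH 7.5, 3 mM MnCl2, 40 min at room temperature. Phosphoric acid stop, filtermat capture, scintillation counting; IC50 from sigmoidal dose-response fit.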

T1 sequence (P48736 whole entry): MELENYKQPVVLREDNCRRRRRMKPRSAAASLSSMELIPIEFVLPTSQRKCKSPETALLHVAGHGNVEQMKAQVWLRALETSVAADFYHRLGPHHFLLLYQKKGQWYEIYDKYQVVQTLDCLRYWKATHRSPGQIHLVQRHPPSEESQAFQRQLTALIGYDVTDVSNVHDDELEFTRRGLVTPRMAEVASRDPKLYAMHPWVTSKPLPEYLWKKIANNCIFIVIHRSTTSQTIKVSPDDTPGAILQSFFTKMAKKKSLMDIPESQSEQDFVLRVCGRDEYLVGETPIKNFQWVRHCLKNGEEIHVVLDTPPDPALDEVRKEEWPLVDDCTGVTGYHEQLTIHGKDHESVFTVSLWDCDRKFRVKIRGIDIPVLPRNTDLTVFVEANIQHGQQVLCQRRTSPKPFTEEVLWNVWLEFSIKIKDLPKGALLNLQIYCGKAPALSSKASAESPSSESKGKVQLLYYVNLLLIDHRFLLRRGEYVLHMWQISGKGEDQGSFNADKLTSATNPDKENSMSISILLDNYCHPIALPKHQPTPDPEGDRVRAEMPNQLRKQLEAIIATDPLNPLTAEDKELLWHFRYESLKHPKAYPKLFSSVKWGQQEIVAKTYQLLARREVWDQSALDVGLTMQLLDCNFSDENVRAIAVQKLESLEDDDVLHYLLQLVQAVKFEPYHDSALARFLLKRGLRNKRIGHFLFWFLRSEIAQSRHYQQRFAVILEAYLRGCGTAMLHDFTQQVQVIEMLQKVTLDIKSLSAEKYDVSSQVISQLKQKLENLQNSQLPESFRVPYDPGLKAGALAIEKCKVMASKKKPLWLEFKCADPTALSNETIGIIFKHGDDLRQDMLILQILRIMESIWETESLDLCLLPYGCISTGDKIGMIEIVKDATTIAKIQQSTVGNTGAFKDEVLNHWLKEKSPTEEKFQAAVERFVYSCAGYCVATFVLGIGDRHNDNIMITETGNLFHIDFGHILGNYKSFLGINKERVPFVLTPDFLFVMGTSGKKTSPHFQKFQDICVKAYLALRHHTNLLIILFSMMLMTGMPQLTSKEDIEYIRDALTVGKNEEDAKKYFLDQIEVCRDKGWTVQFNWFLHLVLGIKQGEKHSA
T2 sequence (P42338 whole entry): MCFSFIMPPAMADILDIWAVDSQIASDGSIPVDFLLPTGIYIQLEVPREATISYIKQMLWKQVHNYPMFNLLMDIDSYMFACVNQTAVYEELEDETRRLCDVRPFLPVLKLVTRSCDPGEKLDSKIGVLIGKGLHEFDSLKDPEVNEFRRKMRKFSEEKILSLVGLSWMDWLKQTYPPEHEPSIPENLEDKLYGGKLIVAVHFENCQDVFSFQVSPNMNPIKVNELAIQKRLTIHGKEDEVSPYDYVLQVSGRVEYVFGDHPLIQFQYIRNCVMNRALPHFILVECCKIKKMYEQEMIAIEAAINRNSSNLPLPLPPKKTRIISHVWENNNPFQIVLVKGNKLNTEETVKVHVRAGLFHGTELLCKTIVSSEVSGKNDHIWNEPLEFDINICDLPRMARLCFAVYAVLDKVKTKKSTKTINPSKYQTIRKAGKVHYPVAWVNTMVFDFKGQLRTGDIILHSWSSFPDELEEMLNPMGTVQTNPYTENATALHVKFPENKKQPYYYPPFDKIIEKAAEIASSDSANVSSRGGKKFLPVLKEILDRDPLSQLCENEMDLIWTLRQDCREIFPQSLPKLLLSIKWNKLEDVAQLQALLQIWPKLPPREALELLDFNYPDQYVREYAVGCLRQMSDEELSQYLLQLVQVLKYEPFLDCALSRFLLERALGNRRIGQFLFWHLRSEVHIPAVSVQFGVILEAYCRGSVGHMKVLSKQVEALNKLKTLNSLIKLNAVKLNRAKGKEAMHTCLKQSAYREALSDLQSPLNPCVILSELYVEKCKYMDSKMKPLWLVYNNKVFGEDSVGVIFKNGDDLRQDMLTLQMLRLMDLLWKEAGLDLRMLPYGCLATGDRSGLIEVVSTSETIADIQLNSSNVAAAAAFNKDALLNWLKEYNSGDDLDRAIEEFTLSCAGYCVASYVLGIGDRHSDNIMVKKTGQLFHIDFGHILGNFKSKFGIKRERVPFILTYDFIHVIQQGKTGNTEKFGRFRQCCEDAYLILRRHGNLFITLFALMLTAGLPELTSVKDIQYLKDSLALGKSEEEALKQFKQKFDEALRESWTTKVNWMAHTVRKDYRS
T2 sequence (P27986 whole entry partner): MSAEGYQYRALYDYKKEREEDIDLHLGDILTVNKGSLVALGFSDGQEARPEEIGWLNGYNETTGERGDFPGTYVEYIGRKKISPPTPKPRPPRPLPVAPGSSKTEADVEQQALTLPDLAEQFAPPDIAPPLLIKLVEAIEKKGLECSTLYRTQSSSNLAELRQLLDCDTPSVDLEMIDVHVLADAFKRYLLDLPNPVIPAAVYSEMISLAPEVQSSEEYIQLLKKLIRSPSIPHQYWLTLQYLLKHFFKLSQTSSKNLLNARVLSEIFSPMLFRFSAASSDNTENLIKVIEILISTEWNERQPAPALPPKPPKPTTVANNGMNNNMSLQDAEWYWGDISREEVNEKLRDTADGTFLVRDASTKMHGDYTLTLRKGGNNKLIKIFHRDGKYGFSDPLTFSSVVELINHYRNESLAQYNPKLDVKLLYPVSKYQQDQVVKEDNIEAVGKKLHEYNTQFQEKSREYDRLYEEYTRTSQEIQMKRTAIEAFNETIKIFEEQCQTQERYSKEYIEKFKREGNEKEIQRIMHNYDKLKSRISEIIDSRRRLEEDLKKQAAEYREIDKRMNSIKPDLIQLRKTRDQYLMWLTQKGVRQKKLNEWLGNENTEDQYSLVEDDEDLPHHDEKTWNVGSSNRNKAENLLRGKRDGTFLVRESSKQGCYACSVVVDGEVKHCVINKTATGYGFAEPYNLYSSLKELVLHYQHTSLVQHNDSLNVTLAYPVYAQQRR

CN(Cc1cc2nc(-c3cccc4[nH]ncc34)nc(N3CCOCC3)c2s1)c1ncc(C(=O)NO)cn1 [Compound 54, 2-(((2-(1H-indazol-4-yl)-4-morpholinothieno[3,2-d]pyrimidin-6-yl)methyl)(methyl)amino)-N-hydroxypyrimidine-5-carboxamide]
IC50 [1]: < 100 nM | IC50 [2]: < 100 nM | IC50 [3]: 10 to 100 nM

CNc1ccc(-c2nc(N3CCOCC3)c3sc(CN(C)c4ncc(C(=O)NO)cn4)cc3n2)cn1 [Compound 111, N-Hydroxy-2-(methyl((2-(6-(methylamino)pyridin-3-yl)-4-morpholinothieno[3,2-d]pyrimidin-6-yl)methyl)amino)pyrimidine-5-carboxamide]
IC50 [1]: 100 to 1000 nM | IC50 [2]: 100 to 1000 nM | IC50 [4]: < 10 nM | IC50 [5]: < 10 nM | IC50 [6]: < 10 nM | IC50 [7]: < 10 nM | IC50 [8]: < 100 nM

CN(Cc1cc2nc(-c3ccc(N)cc3)nc(N3CCOCC3)c2s1)c1ncc(C(=O)NO)cn1 [Compound 150, 2-(((2-(4-aminophenyl)-4-morpholinothieno[3,2-d]pyrimidin-6-yl)methyl)(methyl)amino)-N-hydroxypyrimidine-5-carboxamide]
IC50 [4]: < 10 nM | IC50 [3]: 100 to 1000 nM | IC50 [5]: < 10 nM | IC50 [6]: < 10 nM | IC50 [7]: < 10 nM | IC50 [8]: < 100 nM
